Results: US11285099B2, “Topical phenytoin for use in the treatment of peripheral neuropathic pain” (Topical Innovations B.V., priority 2016, dated 2022)
“Also recorded” adds a separate entry of the source. Where two headings read alike, the source gives them in different places.

Assays:
[1] = partition coefficient between octanol and water; cited from earlier work
[2] = test system: peripheral neuropathic pain; test: Patient cases: topical application on the skin, pain scored on the 11-point numerical rating scale (NRS); conditions: individual patients of Cases 1-15
[3] = after oral administration; cited from earlier work
[4] = cited from earlier work
neuropathic pain = conditions: in vivo; cited from earlier work

Compound	Log P [1]	analgesic effect of other or earlier treatment in the patient's history [2]	tolerability of earlier treatment in the patient's history (words) [2]	other results
O=[N+]([O-])O[C@H]1CO[C@H]2[C@@H]1OC[C@H]2O[N+](=O)[O-] [Isosorbide dinitrate]	1.3	–	–	–
CNC1(c2ccccc2Cl)CCCCC1=O (centres unmarked) [Ketamine]	2.9	–	–	–
CN(C)C(=O)C(CCN1CCC(O)(c2ccc(Cl)cc2)CC1)(c1ccccc1)c1ccccc1 [Loperamide]	5.5	–	–	–
CN(C)CCC=C1c2ccccc2CCc2ccccc21 [amitriptyline]	–	no effect; also recorded: did not have any analgesic effect	induced too many side effects	–
O=C(O)Cc1ccccc1Nc1c(Cl)cccc1Cl [diclofenac]	–	–	–	Cmax. of diclofenac in corresponding tissue [3]: 1160 ng/mL
CNCC[C@H](Oc1cccc2ccccc12)c1cccs1 [duloxetine]	–	did not have any effect	induced too many side effects	–
NCC1(CC(=O)O)CCCCC1 [gabapentin]	–	did not have any effect	–	–
O=C1NC(=O)C(c2ccccc2)(c2ccccc2)N1.[Na] [phenytoin sodium, sodium 5,5-diphenyl-2,4-imidazolidinedione]	–	–	–	solubility in water ([4]; 37° C., pH 10): about 2 mg/ml; maximum solubility in water ([4]; 37° C., pH 11.1): about 140 mg/mL; solubility in water ([4]; 37° C., pH range between 1 and 6): 35 to 40 µg/mL; pH at which dissolvable in water in significant amounts ([4]; according to US 2009/0022779): ≥ 12 pH
CC(C)C[C@H](CN)CC(=O)O [pregabalin]	–	did not have any effect	induced too many side effects	day at which significant pain reduction or relief versus placebo was shown (neuropathic pain): 2 days; median onset of action (>30% pain reduction) (neuropathic pain): 36 days; tolerability of earlier treatment in the patient's history (words) ([2]; listed as Pregabalin): too much side effects
COc1cccc(C2(O)CCCCC2CN(C)C)c1 (centres unmarked) [tramadol]	–	did not have any analgesic effect	induced too many side effects	–
